# Experimental data reported in patent publication US12727599B2, “Use of cyclodextrins as agrochemical delivery system” (priority 2018, dated 2026).
# Legend:
# [1] = Complexation ability of cyclodextrins with chlorantraniliprole; assay type: physicochemical
# [2] = Phase solubility isotherms of folpet-cyclodextrin complexes; assay type: physicochemical; settings: with folpet
# Experimental: The weight ratio of folpet to cyclodextrin was approximately 1:2. The content of folpet in the complex was determined by HPLC. Phase solubility isotherms were carried out for the folpet-cyclodextrin complexes.
complexation ability [1],Molecule,complexation ability [2]
highest complexation ability,"OC[C@H]1O[C@@H]2O[C@H]3[C@H](O)[C@@H](O)[C@@H](O[C@H]4[C@H](O)[C@@H](O)[C@@H](O[C@H]5[C@H](O)[C@@H](O)[C@@H](O[C@H]6[C@H](O)[C@@H](O)[C@@H](O[C@H]7[C@H](O)[C@@H](O)[C@@H](O[C@H]1[C@H](O)[C@H]2O)O[C@@H]7CO)O[C@@H]6CO)O[C@@H]5CO)O[C@@H]4CO)O[C@@H]3CO [Alpha-cyclodextrin, alpha cyclodextrin]",–
–,methyl-beta-cyclodextrin [RAMEB cyclodextrin],highest complexation ability
